Data as given in patent publication US11976083B2, “Inhibitors of peptidylarginine deiminases” (Gilead Sciences, Inc., priority 2020, dated 2024).

These compounds were tested against T1, human PAD4 (Homo sapiens, UniProt Q9UM07) (assay: In vitro PAD4 BAEE biochemical assay). Conditions: BAEE substrate 3 mM, 5 nM PAD4, 2 mM calcium chloride; geometric mean of multiple experiments.
T1 construct: human PAD4 (NM_012387), A2-P663, was PCR amplified; His-SUMO (N, cleaved yes); made in house; host or cells: E. coli BL21(DE3)
Procedure, shortened: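 PAD4 5 nM, CaCl2 2 mM, BAEE 3 mM final; 50 mM MOPS pH 7.6, 50 mM NaCl, 0.05% Tween-20, 2 mM DTT. Cpd + enzyme 30 min 25 °C; substrate 2 h 25 °C; EDTA stop; OPA detection 1 h. IC50 4-parameter fit.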

T1 sequence (Q9UM07 2-663): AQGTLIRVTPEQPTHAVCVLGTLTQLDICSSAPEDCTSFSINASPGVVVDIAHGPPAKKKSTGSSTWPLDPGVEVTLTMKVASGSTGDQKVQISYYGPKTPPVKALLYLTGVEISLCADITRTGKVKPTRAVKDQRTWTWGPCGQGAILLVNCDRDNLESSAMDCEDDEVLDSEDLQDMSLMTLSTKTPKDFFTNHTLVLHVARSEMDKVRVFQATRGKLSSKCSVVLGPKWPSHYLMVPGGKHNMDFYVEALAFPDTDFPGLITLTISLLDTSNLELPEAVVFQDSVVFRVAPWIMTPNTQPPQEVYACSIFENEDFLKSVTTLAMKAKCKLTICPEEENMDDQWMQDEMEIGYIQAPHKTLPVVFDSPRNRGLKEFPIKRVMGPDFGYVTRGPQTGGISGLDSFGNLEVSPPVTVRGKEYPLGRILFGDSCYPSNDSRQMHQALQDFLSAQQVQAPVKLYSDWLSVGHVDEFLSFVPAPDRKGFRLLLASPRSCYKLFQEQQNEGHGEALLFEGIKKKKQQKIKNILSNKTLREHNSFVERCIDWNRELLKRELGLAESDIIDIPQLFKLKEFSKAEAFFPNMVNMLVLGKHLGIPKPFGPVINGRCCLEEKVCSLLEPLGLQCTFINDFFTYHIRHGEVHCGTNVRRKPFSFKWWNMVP

SMILES	IC50 [nM]
COc1cc(C(=O)N2CC[C@@H](OC(F)F)[C@@H](N)C2)cc2nc(-c3cc4ccc5cc4n3CCCCCc3nccnc3C(=O)N[C@@H]5C)n(C)c12 [Example 577, (2~{R})-17-[5-[(3~{S),4~{R})-3-amino-4-(difluoromethoxy)piperidine-1-carbonyl]-7-methoxy-1-methyl-benzimidazol-2-yl]-2-methyl-3,6,9,16-tetrazatetracyclo [14.5.2.0^{5,10}.0^{19, 23}]tricosa-1(22),5(10), 6,8,17,19(23),20-heptaen-4-one]	84
CO[C@@H]1CCN(C(=O)c2cc(F)c3c(c2)nc(-c2cc4ccc5nc4n2CCCCCc2nccnc2C(=O)N[C@@H]5C)n3C2CC2)C[C@@H]1N [Example 578, (2~{R})-17-[5-[(3~{S},4~ {R})-3-amino-4-methoxy-piperidine-1-carbonyl]-1-cyclopropyl-7-fluoro-benzimidazol-2-yl]-2-methyl-3,6,9,16,22-pentazatetracyclo[14.5.2.0^ {5,10}.0^{19,23}] tricosa-1(22),5(10),6,8,17, 19(23),20-heptaen-4-one]	78
CO[C@@H]1CCN(C(=O)c2cc(F)c3c(c2)nc(-c2cc4ccc5nc4n2CCCCCC2C[C@H]2C(=O)N[C@@H]5C)n3C2CC2)C[C@@H]1N (stereo partly shown) [Example 579, (2~{R},5~{R},7~{R})-14-[5-[(3~{S),4~{R})-3-amino-4-methoxy-piperidine-1-carbonyl]-1-cyclopropyl-7-fluoro-benzimidazol-2-yl]-2-methyl-3,13,19-triazatetracyclo [11.5.2.0^{5,7}.0^{16,20}] icosa-1(19),14,16(20), 17-tetraen-4-one]	50
C[C@H]1NC(=O)[C@@H]2C[C@H]2CCCCCn2c(-c3nc4cc(C(=O)N[C@H]5CNCC[C@@H]5F)c(F)cn4c3C3CC3)cc3ccc1nc32 [Example 580, 3-cyclopropyl-6-fluoro-~ {N}-[(3~{S},4~{S})-4-fluoro-3-piperidyl]-2-[(2~{R},5~{R},7~{R})-2-methyl-4-oxo-3,13,19-triazatetracyclo[11.5.2.0^ {5,7}.0^{16,20}]icosa-1(19),14,16(20),17-tetraen-14-yl]imidazo[1,2-a] pyridine-7-carboxamide]	24
COc1cc(C(=O)N2[C@H]3CC[C@@H]2[C@H](N)[C@H](OC(F)F)C3)cc2nc(-c3cc4ccc5nc4n3CCCCC[C@@H]3C[C@H]3C(=O)N[C@@H]5C)n(C)c12 [Example 581, (2~{R},5~{R},7~{R})-14-[5-[(1~{R},2~{S},3~ {R},5~{S})-2-amino-3-(difluoromethoxy)-8-azabicyclo[3.2.1]octane-8-carbonyl]-7-methoxy-1-methyl-benzimidazol-2-yl]-2-methyl-3,13,19-triazatetracyclo[11.5.2.0^ {5,7}.0^{16,20}]icosa-1(19), 14,16(20),17-tetraen-4-one]	176
COc1cc(C(=O)N2CC[C@@H](OC(F)(F)F)[C@@H](N)C2)cc2nc(-c3cc4ccc5nc4n3CCCCC[C@@H]3C[C@H]3C(=O)N[C@@H]5C)n(C)c12 [Example 582, (2~{R},5~{R},7~{R})-14-[5-[(3~{S},4~{R})-3-amino-4-(trifluoromethoxy)piperidine-1-carbonyl]-7-methoxy-1-methyl-benzimidazol-2-yl]-2-methyl-3,13,19-triazatetracyclo[11.5.2.0^ {5,7}.0^{16,20}]icosa-1(19), 14,16(20),17-tetraen-4-one]	271
COc1cc(C(=O)N2CC[C@@H](OC)[C@@H](N)C2)cc2nc(-c3cc4ccc5nc4n3CCCCC[C@@H]3C[C@@]3(C)C(=O)N[C@@H]5C)n(C)c12 [Example 583, (2~{R},5~{R},7~{R})-14-[5-[(3~{S),4~{R})-3-amino-4-methoxy-piperidine-1-carbonyl]-7-methoxy-1-methyl-benzimidazol-2-yl]-2,5-dimethyl-3,13,19-triazatetracyclo[11.5.2.0^ {5,7}.0^{16,20}]icosa-1(19), 14,16(20),17-tetraen-4-one]	69
COc1cc(C(=O)N2[C@H]3CC[C@@H]2[C@H](N)[C@H](OC)C3)cc2nc(-c3cc4ccc5nc4n3CCCCC[C@@H]3C[C@H]3C(=O)N[C@@H]5C)n(C)c12 [Example 584, (2~{R},5~{R},7~{R})-14-[5-[(1~{R},2~{S},3~ {R},5~{S})-2-amino-3-methoxy-8-azabicyclo[3.2.1]octane-8-carbonyl]-7-methoxy-1-methyl-benzimidazol-2-yl]-2-methyl-3,13,19-triazatetracyclo [11.5.2.0^{5,7}.0^{16,20}] icosa-1(19),14,16(20), 17-tetraen-4-one]	51
COc1cc(C(=O)N2CC[C@@H](OC)[C@@H](N)C2)cc2nc(-c3cc4ccc5nc4n3CC(F)(F)CCC[C@@H]3C[C@@]3(C)C(=O)N[C@@H]5C)n(C)c12 [Example 585, (2~{R},5~{R},7~{R})-14-[5-[(3~{S},4~{R})-3-amino-4-methoxy-piperidine-1-carbonyl]-7-methoxy-1-methyl-benzimidazol-2-yl]-11,11-difluoro-2,5-dimethyl-3,13,19-triazatetracyclo[11.5.2.0^ {5,7}.0^{16,20}]icosa-1(19),14,16(20),17-tetraen-4-one]	74
COc1cc(C(=O)N2CC[C@@H](OC)[C@@H](N)C2)cc2nc(-c3cc4ccc5nc4n3CCCCCC[C@@H]3C[C@H]3C(=O)N[C@@H]5C)n(C)c12 [Example 586, (2~{R},5~{R},7~{R})-15-[5-(3~{S),4~{R})-3-[amino-4-methoxy-piperidine-1-carbonyl]-7-methoxy-1-methyl-benzimidazol-2-yl]-2-methyl-3,14,20-triazatetracyclo[12.5.2.0^ {5,7}.0^{17,21}] henicosa-1(20),15,17(21), 18-tetraen-4-one]	88
COc1cc(C(=O)N2CC[C@@H](OC)[C@@H](N)C2)cc2nc(-c3cc4ccc5nc4n3CC(F)(F)CCCC(C)(C)C(=O)N[C@@H]5C)n(C)c12 [Example 587, (10~{R})-16-[5-[(3~{S},4~ {R})-3-amino-4-methoxy-piperidine-1-carbonyl]-7-methoxy-1-methyl-benzimidazol-2-yl]-3,3-difluoro-7,7,10-trimethyl-1,9,18-triazatricyclo[9.5.2.0^ {14,17}]octadeca-11(18),12,14(17), 15-tetraen-8-one]	163
COc1cc(C(=O)N2CC[C@@H](OC)[C@@H](N)C2)cc2nc(-c3cc4ccc5nc4n3CC(F)(F)CCCOC(C)(C)C(=O)N[C@@H]5C)n(C)c12 [Example 588, (11~{R})-17-[5-[(3~{S},4~ {R})-3-amino-4-methoxy-piperidine-1-carbonyl]-7-methoxy-1-methyl-benzimidazol-2-yl]-3,3-difluoro-8,8,11-trimethyl-7-oxa-1,10,19-triazatricyclo[10.5.2.0^ {15,18}]nonadeca-12(19),13,15(18), 16-tetraen-9-one]	193
COc1cc(C(=O)N2CC[C@@H](OC)[C@@H](N)C2)cc2nc(-c3cc4ccc5nc4n3CC(F)(F)CCCOC3(CC3)C(=O)N[C@@H]5C)n(C)c12 [Example 589, (11~{R})-17-[5-[(3~{S},4~ {R})-3-amino-4-methoxy-piperidine-1-carbonyl]-7-methoxy-1-methyl-benzimidazol-2-yl]-3,3-difluoro-11-methyl-spiro[7-oxa-1,10,19-triazatricyclo[10.5.2.0^ {15,18}]nonadeca-12(19), 13,15(18),16-tetraene-8,1′-cyclopropane]-9-one]	145
